According to US4056634A, “Dimercaptoethyl ether sulfonium compounds and use as antiinflammatory and antirheumatic agents” (Whitefin Holding S.A., priority 1975, dated 1977):

Legend:
in vivo = conditions: rat
[1] = test system: Freund's adjuvant arthritis; assay: Freund's adjuvant arthritis test in rats (Perper's design); conditions: 0.04 LD50, N = 10; for Δ Volume (ml) (not injected paw; opposite site), x- ± s.e.: arthritic controls 1.68 ± 0.14; for ΔVolume (ml) (injected paw), x- ± s.e.: arthritic controls 3.21 ± 0.27
Granuloma pouch = assay: "Granuloma pouch" test (Selye), antiinflammatory activity in the rat; conditions: 0.06 LD50, N = 10; for Exudate volume (ml), x- ± s.e.: controls 13.2 ± 2.19
[2] = 80 mg/Kg/os daily, n.s. = not significant

Structure (SMILES): CC(=O)Oc1ccccc1C(=O)O [Acetylsalicylic acid]
- LD50 (in vivo; ip): 500 mg/kg
- LD50 (in vivo; po): 1500 mg/kg

Structure (SMILES): CCCCC1C(=O)N(c2ccccc2)N(c2ccccc2)C1=O [Phenylbutazone]
- Δ Volume (not injected paw; opposite site), % inhib. ([1]; 50 mg/Kg/os daily): 0%
- ΔVolume (injected paw), % inhib. ([1]; 50 mg/Kg/os daily): 8%
- Δ Volume (ml) (not injected paw; opposite site), x- ± s.e. ([1]; 50 mg/Kg/os daily): 1.74 ± 0.13 mL
- ΔVolume (ml) (injected paw), x- ± s.e. ([1]; 50 mg/Kg/os daily): 2.97 ± 0.14 mL
- Pouch wall Fresh weight, % inhib. (Granuloma pouch; 80 mg/Kg/os daily): 27%
- Pouch wall Fresh weight (g), x- ± s.e. (Granuloma pouch; 80 mg/Kg/os daily, controls 5.10 ± 0.53): 3.72 ± 0.28 g
- Exudate volume (ml), x- ± s.e. (Granuloma pouch; 80 mg/Kg/os daily): 9.70 ± 1.65 mL
- Exudate volume, % inhib. (Granuloma pouch; [2]): 28%
- Pouch wall Fresh weight, % inhib. (Granuloma pouch; [2]): 20%

Structure (SMILES): C[S+](C)CCOCC[S+](C)C [Z.964, 2,2'-bis(dimethylsulfoniumethyl)ether diiodide]
- LD50 (in vivo; ip): 1150 mg/kg
- LD50 (in vivo; po): > 5000 mg/kg
- Δ Volume (not injected paw; opposite site), % inhib. ([1]; 200 mg/Kg/os daily): 63%
- ΔVolume (injected paw), % inhib. ([1]; 200 mg/Kg/os daily): 32%
- Δ Volume (ml) (not injected paw; opposite site), x- ± s.e. ([1]; 200 mg/Kg/os daily): 0.61 ± 0.13 mL
- ΔVolume (ml) (injected paw), x- ± s.e. ([1]; 200 mg/Kg/os daily): 2.17 ± 0.24 mL
- Pouch wall Fresh weight, % inhib. (Granuloma pouch; 300 mg/Kg/os daily): 48%
- Exudate volume, % inhib. (Granuloma pouch; 300 mg/Kg/os daily, * P<0.05): 53%
- Pouch wall Fresh weight, % inhib. (Granuloma pouch; 300 mg/Kg/os daily, * P<0.05): 38%
- Pouch wall Fresh weight (g), x- ± s.e. (Granuloma pouch; 300 mg/Kg/os daily, controls 5.10 ± 0.53): 2.70 ± 0.27 g
- Exudate volume (ml), x- ± s.e. (Granuloma pouch; 300 mg/Kg/os daily): 6.15 ± 0.69 mL
- Pouch wall Fresh weight (g), x- ± s.e. (Granuloma pouch; 300 mg/Kg/os daily, controls 1126.7, s.e. 156.7): 708.9 ± 79.0
